Results from US9951065B2 (Gilead Sciences, Inc., priority 2015, dated 2018).

Target: T1, IDO1 (Homo sapiens, UniProt P14902)
T1 construct: HeLa cells were treated with a test compound in the presence of IFNγ, which induces IDO1 expression; host or cells: H1-HeLa cells, IDO1 induced with IFNγ
Experiment: Cell-based (HeLa) assay for measurement of IDO1 inhibition (kynurenine levels in supernatant after IFNγ induction)
Settings: HeLa cells, geometric mean of a minimum of four determinations
Procedure, shortened: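 HeLa cells, 1,250 per well, treated with compound (0.5% DMSO final) plus IFNγ to induce IDO1, for 48 h. Supernatant kynurenine measured by TCA hydrolysis at 60 °C, then p-dimethylaminobenzaldehyde, absorbance 480 nm. EC50 from a four-parameter fit normalized to −/+IFNγ controls; geometric mean of at least four runs.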

[1] = IFNγ-induced IDO1, kynurenine in supernatant after 48 hour incubation
[2] = IFNγ-induced IDO1, kynurenine in supernatant, 48 hour incubation

T1 sequence (P14902 whole entry): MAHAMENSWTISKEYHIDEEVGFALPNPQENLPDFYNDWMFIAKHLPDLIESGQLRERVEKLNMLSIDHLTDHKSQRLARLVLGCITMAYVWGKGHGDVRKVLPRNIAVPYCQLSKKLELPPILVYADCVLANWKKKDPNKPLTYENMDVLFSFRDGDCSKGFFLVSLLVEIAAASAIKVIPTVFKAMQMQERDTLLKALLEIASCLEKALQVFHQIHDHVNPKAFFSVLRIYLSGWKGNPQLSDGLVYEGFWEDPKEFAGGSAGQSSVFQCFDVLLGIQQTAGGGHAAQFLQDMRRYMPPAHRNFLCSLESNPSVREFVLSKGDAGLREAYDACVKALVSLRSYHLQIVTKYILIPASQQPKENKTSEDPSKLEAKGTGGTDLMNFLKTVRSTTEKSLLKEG

Row | Compound | EC50 [1] [nM] | EC50 [2] [nM]
1 | O/N=C(\Nc1ccc(F)c(Cl)c1)c1ccnc2nc(CCN3CCCCCC3)[nH]c12 [Example 258, 2-(2-(azepan-1-yl)ethyl)-N-(3-chloro-4-fluorophenyl)-N′-hydroxy-1H-imidazo[4,5-b]pyridine-7-carboximidamide] | 844 | 
2 | CN(C)CC(C)(C)CNc1nc2c(F)ccc(/C(=N/O)Nc3ccc(F)c(Cl)c3)c2[nH]1 [Example 381, N-(3-chloro-4-fluorophenyl)-2-((3-(dimethylamino)-2,2-dimethylpropyl)amino)-4-fluoro-N′-hydroxy-1H-benzo[d]imidazole-7-carboximidamide] |  | 3030
3 | O/N=C(\Nc1cccc(Br)c1)c1ccnc2nc(CCN3CCCCC3)[nH]c12 [Example 272, N-(3-bromophenyl)-N′-hydroxy-2-(2-(piperidin-1-yl)ethyl)-1H-imidazo[4,5-b]pyridine-7-carboximidamide] | 477 | 
4 | O/N=C(\Nc1cc(Br)c(F)cc1F)c1ccnc2nc[nH]c12 [Example 61, N-(5-Bromo-2,4-difluorophenyl)-N′-hydroxy-1H-imidazo[4,5-b]pyridine-7-carboximidamide] | 371 | 
5 | CN1CCCCC(Nc2nc3nccc(/C(=N/O)Nc4ccc(F)c(Cl)c4)c3[nH]2)C1 (centres unmarked) [Example 217, N-(3-chloro-4-fluorophenyl)-N′-hydroxy-2-((1-methylazepan-3-yl)amino)-1H-imidazo[4,5-b]pyridine-7-carboximidamide] | 2870 | 
6 | CC(C)CNCCc1nc2nccc(/C(=N/O)Nc3ccc(F)c(Cl)c3)c2[nH]1 [Example 206, N-(3-chloro-4-fluorophenyl)-N′-hydroxy-2-(2-(isobutylamino)ethyl)-3H-imidazo[4,5-b]pyridine-7-carboximidamide] | 2300 | 
7 | O/N=C(\Nc1ccc(F)c(Cl)c1)c1ccnc2nc(CNCc3ccccc3)[nH]c12 [Example 115, 2-((Benzylamino)methyl)-N-(3-chloro-4-fluorophenyl)-N′-hydroxy-1H-imidazo[4,5-b]pyridine-7-carboximidamide] | 1760 | 
8 | OCC1CCCCN1CCNc1nc2c(F)c(F)cc(/C(=N/O)Nc3ccc(F)c(Cl)c3)c2[nH]1 (centres unmarked) [Example 489, N-(3-chloro-4-fluorophenyl)-4,5-difluoro-N′-hydroxy-2-((2-(2-(hydroxymethyl)piperidin-1-yl)ethyl)amino)-1H-benzo[d]imidazole-7-carboximidamide] |  | 289
9 | COCCCNCc1nc2nccc(/C(=N/O)Nc3ccc(F)c(Cl)c3)c2[nH]1 [Example 120, N-(3-Chloro-4-fluorophenyl)-N′-hydroxy-2-(((3-methoxypropyl)amino)methyl)-1H-imidazo[4,5-b]pyridine-7-carboximidamide] | 1330 | 
10 | CN1CCCCC1CCNc1nc2c(F)c(F)cc(/C(=N/O)Nc3ccc(F)c(Cl)c3)c2[nH]1 (centres unmarked) [Example 355, N-(3-chloro-4-fluorophenyl)-4,5-difluoro-N′-hydroxy-2-((2-(1-methylpiperidin-2-yl)ethyl)amino)-1H-benzo[d]imidazole-7-carboximidamide] |  | 2020
11 | CNc1nc2c(F)c(F)cc(/C(=N/O)Nc3ccc(F)c(Cl)c3)c2[nH]1 [Example 38, N-(3-Chloro-4-fluorophenyl)-4,5-difluoro-N′-hydroxy-2-(methylamino)-1H-benzo[d]imidazole-7-carboximidamide] | 607 | 
12 | CN(C)C(=O)CNc1nc2c(F)c(F)cc(/C(=N/O)Nc3ccc(F)c(Cl)c3)c2[nH]1 [Example 301, 2-((7-(N-(3-chloro-4-fluorophenyl)-N′-hydroxycarbamimidoyl)-4,5-difluoro-1H-benzo[d]imidazol-2-yl)amino)-N,N-dimethylacetamide] |  | 3960
13 | CCNCc1nc2c(/C(=N/O)Nc3ccc(F)c(Cl)c3)cc(F)c(F)c2[nH]1 [Example 50, N-(3-Chloro-4-fluorophenyl)-2-((ethylamino)methyl)-6,7-difluoro-N′-hydroxy-1H-benzo[d]imidazole-4-carboximidamide] | 457 | 
14 | Nc1nc2c(F)ccc(/C(=N/O)Nc3ccc(F)c(C(F)(F)F)c3)c2[nH]1 [Example 21, 2-Amino-4-fluoro-N-(4-fluoro-3-(trifluoromethyl)phenyl)-N′-hydroxy-1H-benzo[d]imidazole-7-carboximidamide] | 725 | 
15 | O/N=C(\Nc1ccc(F)c(Cl)c1)c1ccnc2nc(-c3ccc[nH]3)[nH]c12 [Example 148, N-(3-Chloro-4-fluorophenyl)-N′-hydroxy-2-(1H-pyrrol-2-yl)-1H-imidazo[4,5-b]pyridine-7-carboximidamide] | 2230 | 
16 | O/N=C(\Nc1ccc(F)c(Cl)c1)c1cc(F)c(F)c2nc(N[C@@H]3CNC[C@@H]3O)[nH]c12 [Example 468, N-(3-chloro-4-fluorophenyl)-4,5-difluoro-N′-hydroxy-2-(((3R,4S)-4-hydroxypyrrolidin-3-yl)amino)-1H-benzo[d]imidazole-7-carboximidamide] |  | > 10000

Row | Compound | EC50 [1] [nM] | EC50 [2] [nM]
17 | O/N=C(\Nc1ccc(F)c(C#CC2CC2)c1)c1ccnc2nc[nH]c12 [Example 79, N-(3-(Cyclopropylethynyl)-4-fluorophenyl)-N′-hydroxy-1H-imidazo[4,5-b]pyridine-7-carboximidamide] | 3220 | 
18 | NCc1nc2c(/C(=N/O)Nc3ccc(F)c(Cl)c3)cc(F)c(F)c2[nH]1 [Example 47, 2-(Aminomethyl)-N-(3-chloro-4-fluorophenyl)-4,5-difluoro-N′-hydroxy-1H-benzo[d]imidazole-7-carboximidamide] | 1080 | 
19 | COC(=O)NCCc1nc2nccc(/C(=N/O)Nc3ccc(F)c(Cl)c3)c2[nH]1 [Example 273, Methyl (2-(7-(N-(3-chloro-4-fluorophenyl)-N′-hydroxycarbamimidoyl)-1H-imidazo[4,5-b]pyridin-2-yl)ethyl)carbamate] | > 10000 | 
20 | CN(C)CCNc1nc2nccc(C(=NO)Nc3ccc(F)c(Cl)c3)c2[nH]1 [Example 215, N-(3-chloro-4-fluorophenyl)-2-((2-(dimethylamino)ethyl)amino)-N′-hydroxy-1H-imidazo[4,5-b]pyridine-7-carboximidamide] | 1200 | 
21 | Nc1nc2cc(F)cc(/C(=N/O)Nc3cccc(Br)c3)c2[nH]1 [Example 372, 2-amino-N-(3-bromophenyl)-5-fluoro-N′-hydroxy-1H-benzo[d]imidazole-7-carboximidamide] |  | 483
22 | CCNCc1nc2c(F)c(F)cc(/C(=N/O)Nc3cccc(Cl)c3)c2[nH]1 [Example 28, N-(3-Chlorophenyl)-2-((ethylamino)methyl)-4,5-difluoro-N′-hydroxy-1H-benzo[d]imidazole-7-carboximidamide] | 801 | 
23 | COCCCNCc1nc2c(/C(=N/O)Nc3ccc(F)c(Cl)c3)cc(F)c(F)c2[nH]1 [Example 45, N-(3-Chloro-4-fluorophenyl)-6,7-difluoro-N′-hydroxy-2-(((3-methoxypropyl)amino)methyl)-1H-benzo[d]imidazole-4-carboximidamide] | 1320 | 
24 | O/N=C(\Nc1ccc(F)c(Cl)c1)c1cc(F)c(F)c2nc(NCCN3CCC(F)(F)CC3)[nH]c12 [Example 36, N-(3-Chloro-4-fluorophenyl)-2-((2-(4,4-difluoropiperidin-1-yl)ethyl)amino)-4,5-difluoro-N′-hydroxy-1H-benzo[d]imidazole-7-carboximidamide] | 712 | 
25 | CN(C)Cc1nc2c(/C(=N/O)Nc3ccc(F)c(Cl)c3)cc(F)c(F)c2[nH]1 [Example 52, N-(3-Chloro-4-fluorophenyl)-2-((dimethylamino)methyl)-6,7-difluoro-N′-hydroxy-4H-benzo[d]imidazole-4-carboximidamide] | 526 | 
26 | CS(=O)(=O)CCNc1nc2nccc(/C(=N/O)Nc3ccc(F)c(Cl)c3)c2[nH]1 [Example 493, N-(3-chloro-4-fluorophenyl)-N′-hydroxy-2-((2-(methylsulfonyl)ethyl)amino)-1H-imidazo[4,5-b]pyridine-7-carboximidamide] |  | 7210
27 | CN(CCc1nc2nccc(/C(=N/O)Nc3ccc(F)c(Cl)c3)c2[nH]1)C1CCCCC1 [Example 393, N-(3-chloro-4-fluorophenyl)-2-(2-(cyclohexyl(methyl)amino)ethyl)-N′-hydroxy-1H-imidazo[4,5-b]pyridine-7-carboximidamide] |  | 1790
28 | CCN(CC)[C@H]1COC[C@@H]1Nc1nc2nccc(C(=NO)Nc3ccc(F)c(Cl)c3)c2[nH]1 [Example 480, N-(3-chloro-4-fluorophenyl)-2-(((3R,4R)-4-(diethylamino)tetrahydrofuran-3-yl)amino)-N′-hydroxy-1H-imidazo[4,5-b]pyridine-7-carboximidamide] |  | 1190
29 | CN1CC(N)[C@H](Nc2nc3c(F)c(F)cc(/C(=N/O)Nc4ccc(F)c(Cl)c4)c3[nH]2)C1 (stereo partly drawn) [Example 435, 2-(((3R)-4-amino-1-methylpyrrolidin-3-yl)amino)-N-(3-chloro-4-fluorophenyl)-4,5-difluoro-N′-hydroxy-1H-benzo[d]imidazole-7-carboximidamide] |  | 1810
30 | O/N=C(\Nc1ccc(F)c(Cl)c1)c1ccnc2nc(NCCN3CCC3)[nH]c12 [Example 233, 2-((2-(azetidin-1-yl)ethyl)amino)-N-(3-chloro-4-fluorophenyl)-N′-hydroxy-1H-imidazo[4,5-b]pyridine-7-carboximidamide] | 1120 | 
31 | O/N=C(\Nc1ccc(F)c(Cl)c1)c1ccnc2nc(Nc3ccccc3)[nH]c12 [Example 155, N-(3-Chloro-4-fluorophenyl)-N′-hydroxy-2-(phenylamino)-1H-imidazo[4,5-b]pyridine-7-carboximidamide] | 2150 | 
32 | O=S1(=O)CCN(CCNc2nc3c(F)c(F)cc(/C(=N/O)Nc4ccc(F)c(Cl)c4)c3[nH]2)CC1 [Example 374, N-(3-chloro-4-fluorophenyl)-2-((2-(1,1-dioxidothiomorpholino)ethyl)amino)-4,5-difluoro-N′-hydroxy-1H-benzo[d]imidazole-7-carboximidamide] |  | 2400
